For one experiment, the target named is T1, AChE from Electric eel (Electrophorus electricus, UniProt O42275).
T1 construct: AChE from Electric eel (Type-VI-S, EC 3.1.1.7, Sigma); purchased Sigma Type-VI-S
In words: AChE inhibitory assay (modified Ellman 96-well microplate). Type of experiment: biochemical. The method, then: (§1) ChE inhibitory activities were measured using a modified 96-well microplate assay developed by. […] After incubation, 125 μl of 3 mM DTNB was added and the total volume was made up to 300 μl with Tris- HCl buffer (pH 8.0/7.4). Enzyme activity was initiated by the addition of 50 μl of 15 mm ATCI/BTCI. […] AChE activity was expressed as U/mg of protein (1U = μmol of thiocholine iodide formed/min/mg protein). […] Percentage of inhibition of AChE/BuChE was determined by comparison of rates of reaction of samples relative to the blank (Tris-HCl buffer) using the formula, where SA is the specific activity.
(§2) % of inhibition = [(SA of control − SA of test sample) / SA of control]*100
A general note: DTNB colorimetry detects thiols as they appear.

The target of a further experiment is T2, BuChE from horse serum (Equus caballus, UniProt P81908).
T2 construct: BuChE from horse serum (EC 3.1.1.8, MP Biomedicals); purchased MP Biomedicals; host or cells: horse serum
In words: biochemical. As to the method:
as §1, §2

The test system of experiment [1] is T3, Aβ 25–35 pre-formed fibrils.
T3 construct: Aβ 25–35 peptide was purchased from GenScript USA Inc; purchased GenScript USA Inc
In words: Thioflavin T assay, Phase II: disaggregation of pre-formed mature fibrils. Conditions: pre-formed Aβ 25–35 fibrils with ACTPG 250 μg/ml or galantamine 50 μM. The class given is biochemical. As to the method: According to the method of Ramesh et al the anti-aggregation and disaggregation property of P. gymnospora was evaluated in two different phases. In phase I, the inhibition of aggregate formation was assessed by using oligomers. Consequently, in Phase II the disaggregation of the pre-formed fibrils were determined. Freshly prepared Aβ 25–35 (100 μM) monomer was incubated in Tris-HCl buffer pH 7.4 at 37°C for 20 h. However, after 20 h, an increase in fluorescence intensity was observed which represents the formation of oligomers. The acetone extract of P. gymnospora (ACTPG) (250 and 500 μg/ml) was added to the oligomers and subjected to incubation at 48 h for dose fixation. […] In phase I, the freshly prepared Aβ 25–35 (100 μM) was incubated with ACTPG (250 μg/ml), and the aggregation pattern was evaluated by ThT assay with the aliquots taken from the incubation mixture at 20 h and 48 h respectively. […] After that, ACTPG (250 μg/ml) was co-incubated with the pre-formed fibrils, and the disaggregation pattern was evaluated by taking the aliquots of incubation mixture at 96 h and 9 days using Thioflavin T assay using the standard Galantamine (50μM) as a positive control. […]
Thioflavin T-induced fluorescence changes were measured to quantify amyloid fibril formation by spectrofluorimeter (Microplate Analyzer) as described by. […]

Some results are limits rather than exact numbers.

T2 sequence (P81908 whole entry): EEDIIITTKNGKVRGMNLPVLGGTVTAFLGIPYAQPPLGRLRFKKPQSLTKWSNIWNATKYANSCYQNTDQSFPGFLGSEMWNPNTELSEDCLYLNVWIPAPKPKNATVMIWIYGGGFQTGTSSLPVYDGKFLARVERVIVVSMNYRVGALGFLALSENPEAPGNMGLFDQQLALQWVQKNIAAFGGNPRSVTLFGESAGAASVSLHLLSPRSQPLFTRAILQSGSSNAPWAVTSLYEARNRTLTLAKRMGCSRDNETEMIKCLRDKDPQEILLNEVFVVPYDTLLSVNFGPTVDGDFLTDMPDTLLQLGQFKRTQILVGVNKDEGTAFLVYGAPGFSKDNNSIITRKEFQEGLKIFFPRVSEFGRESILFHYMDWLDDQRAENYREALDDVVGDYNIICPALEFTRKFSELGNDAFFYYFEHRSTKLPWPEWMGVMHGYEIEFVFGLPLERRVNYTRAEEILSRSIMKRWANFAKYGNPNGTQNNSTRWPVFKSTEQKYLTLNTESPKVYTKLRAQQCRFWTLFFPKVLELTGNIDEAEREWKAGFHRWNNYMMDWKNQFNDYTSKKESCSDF
T1 sequence (O42275 24-633): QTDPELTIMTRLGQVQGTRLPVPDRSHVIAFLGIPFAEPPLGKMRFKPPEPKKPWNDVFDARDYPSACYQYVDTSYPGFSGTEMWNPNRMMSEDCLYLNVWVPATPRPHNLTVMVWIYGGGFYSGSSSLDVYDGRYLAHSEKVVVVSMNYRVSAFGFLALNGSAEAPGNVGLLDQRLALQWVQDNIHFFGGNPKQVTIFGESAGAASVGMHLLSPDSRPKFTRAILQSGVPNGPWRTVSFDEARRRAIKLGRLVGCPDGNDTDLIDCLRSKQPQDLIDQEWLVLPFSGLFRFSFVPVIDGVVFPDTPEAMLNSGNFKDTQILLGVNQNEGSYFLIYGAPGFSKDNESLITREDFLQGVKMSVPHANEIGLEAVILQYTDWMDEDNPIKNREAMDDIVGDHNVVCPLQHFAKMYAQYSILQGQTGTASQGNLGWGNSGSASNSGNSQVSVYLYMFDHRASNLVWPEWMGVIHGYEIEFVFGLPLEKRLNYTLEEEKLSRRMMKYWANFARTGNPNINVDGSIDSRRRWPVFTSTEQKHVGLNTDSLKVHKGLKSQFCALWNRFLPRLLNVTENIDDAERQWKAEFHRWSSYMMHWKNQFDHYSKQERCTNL

By IC50 is commonly meant the concentration that inhibits the measured activity by half. A high value points to a need for much substance. Turning to `CC(C)=CCC[C@](C)(O)[C@@H]1CC=C(C)CC1` [alpha-bisabolol, Alpha-bisabolol], the IC50 at AChE from Electric eel and at BuChE from horse serum was under 45 µM each time. Besides, on AChE from Electric eel (read-out: maximum AChE inhibitory activity), the inhibition at 50 µg/mL is 87%. Moreover, at BuChE from horse serum (10–50 μg/ml tested, at 50 μg/ml, read-out: maximum BuChE inhibitory activity), the inhibition at up to 50 µg/mL turned out to be 66%.

Turning to `COc1ccc2c3c1O[C@H]1C[C@@H](O)C=C[C@@]31CCN(C)C2` [Galantamine], the “Thioflavin T fluorescence intensity” value in experiment [1] (96 h, Aβ alone 4.67 ± 0.28 AU) is recorded as 3.62 ± 0.55 AU; in experiment [1] (9 days, Aβ alone 6.06 ± 0.47 AU), 2.86 ± 0.94 AU.

(Values after publication PMC4633220, “Antiaggregation Potential of Padina gymnospora against the Toxic Alzheimer’s Beta-Amyloid Peptide 25–35 and Cholinesterase Inhibitory Property of Its Bioactive Compounds” (PLoS ONE, 2015).)
